According to patent publication US20110263647A1 (AMGEN INC., priority 2009, published 2011):
Read-outs that look alike come from different tables or passages of the source.

Tests used:
CYP2D6 = biological target: T1, CYP2D6 (Homo sapiens, UniProt P10635); assay: CYP2D6 inhibition assay (bufuralol, pooled human liver microsomes); type: in vitro ADME; settings: pH 7.4, probe bufuralol (5 μM), test compound 3 μM, human liver microsomes 0.25 mg/mL
T1 construct: tissue XenoTech LLC Lot 0610351; host or cells: pooled human liver microsomes
T1 sequence (P10635 whole entry): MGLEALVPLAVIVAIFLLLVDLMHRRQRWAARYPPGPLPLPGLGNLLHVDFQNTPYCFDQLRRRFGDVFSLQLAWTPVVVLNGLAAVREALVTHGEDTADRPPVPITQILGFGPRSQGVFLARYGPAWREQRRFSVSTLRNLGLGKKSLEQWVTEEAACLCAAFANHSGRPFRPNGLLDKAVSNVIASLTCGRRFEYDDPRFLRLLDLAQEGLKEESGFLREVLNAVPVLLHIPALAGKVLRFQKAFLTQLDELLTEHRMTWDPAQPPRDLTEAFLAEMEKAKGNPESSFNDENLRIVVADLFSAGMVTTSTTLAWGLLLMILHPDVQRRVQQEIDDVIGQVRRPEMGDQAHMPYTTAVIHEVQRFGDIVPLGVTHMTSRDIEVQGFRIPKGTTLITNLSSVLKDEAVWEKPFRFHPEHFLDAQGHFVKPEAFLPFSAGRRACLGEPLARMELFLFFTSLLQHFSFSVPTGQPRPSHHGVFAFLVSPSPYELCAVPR
Protocol: (§1) Midazolam was obtained from BD Gentest (Waltham, Mass.); 1′ hydroxy midazolam and 1-hydroxy bufuralol maleate were obtained from Ultrafine Chemicals (Manchester, UK); bufuralol HCl, ketoconazole, quinidine, potassium phosphate, and NADPH were obtained from Sigma (St. Louis, Mo.). Test compounds were prepared at 10 mM concentration in DMSO (Mallinckrodt Inc., St. Louis, Mo.). NADPH was prepared at 10 mM concentration in a pH 7.4 buffer (8.3 mg/mL 66.7 mM potassium phosphate). Midazolam was prepared at 1 mM concentration in deionized water (Amgen, Thousand Oaks, Calif.), and bufuralol was prepared at 2 mM concentration in deionized water. A stock solution of ketoconazole was prepared at 37 mM concentration in DMSO, and quinidine was prepared at 500 uM concentration in DMSO. Formic acid in acetonitrile (0.05%, ACN) was used as a quench solution (Sigma-Aldrich, St. Louis, Mo.). All solvents used for LC/MS were of chromatographic grade. Pooled human liver microsomes (Lot 0610351) were purchased from XenoTech LLC, (Lenexa, Kans.).
Pooled human liver microsomes (0.25 mg/mL) were incubated at 37° C. in a phosphate buffer (66.7 mM potassium phosphate at pH 7.4) with the selective CYP2D6 substrate bufuralol at a concentration of 5 μM in the presence and absence of test compound (3 μM). The reaction was started with the addition of NADPH (1 mM final concentration). The reaction was stopped after 10 minutes by addition of formic acid in acetonitrile. 1-Hydroxybufuralol metabolite formation was measured by an HPLC MS detection method (mobile phases for HPLC were: 0.1% AcOH in 5% MeOH, and 0.1% AcOH in 95% MeOH; the HPLC column was an Onyx Monolithic C18 CHO-7645 HPLC column from Phenomenex; Shimadzu LC-10ADVP equipped Biomek FX Liquid handling system and CTC Analytics PAL well auto-sampler; Mass spectrometer: Applied Biosystems API 3000 using Analyst 1.4.1 software). Inhibition was determined by the ratio of the amount of 1-hydroxy bufuralol metabolite formed metabolite in the presence of test compound to the amount of metabolite in the absence of test compound.

CYP3A4 = biological target: T2, CYP3A4 (Homo sapiens, UniProt P08684); assay: CYP3A4 inhibition assay (midazolam, pooled human liver microsomes); type: in vitro ADME; settings: pH 7.4, probe midazolam (2.5 μM), test compound 3 μM, human liver microsomes 0.1 mg/mL
T2 construct: tissue XenoTech LLC Lot 0610351; host or cells: pooled human liver microsomes
T2 sequence (P08684 whole entry): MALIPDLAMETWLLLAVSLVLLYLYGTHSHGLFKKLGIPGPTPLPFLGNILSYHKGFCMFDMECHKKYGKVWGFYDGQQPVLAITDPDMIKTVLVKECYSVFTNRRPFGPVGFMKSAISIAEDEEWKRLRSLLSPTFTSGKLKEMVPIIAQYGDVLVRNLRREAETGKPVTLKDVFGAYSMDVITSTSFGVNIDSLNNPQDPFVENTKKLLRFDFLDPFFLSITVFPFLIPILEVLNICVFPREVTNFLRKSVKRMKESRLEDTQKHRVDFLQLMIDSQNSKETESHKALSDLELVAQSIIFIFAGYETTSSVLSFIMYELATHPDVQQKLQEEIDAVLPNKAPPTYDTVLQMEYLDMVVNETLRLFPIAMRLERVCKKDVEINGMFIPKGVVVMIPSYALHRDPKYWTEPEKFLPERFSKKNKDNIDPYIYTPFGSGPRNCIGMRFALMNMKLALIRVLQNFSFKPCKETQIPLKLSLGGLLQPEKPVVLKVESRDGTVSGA
Protocol: as §1
Pooled human liver microsomes (0.1 mg/mL) were incubated at 37° C. in a phosphate buffer (66.7 mM potassium phosphate at pH 7.4) with the selective CYP3A substrate midazolam at a concentration of 2.5 μM in the presence and absence of test compound (3 μM). The reaction was started with the addition of NADPH (1 mM final concentration). The reaction was stopped after 10 minutes by addition of formic acid in acetonitrile. 1′-Hydroxymidazolam metabolite formation was measured by an HPLC MS detection method (mobile phases were 0.1% AcOH in 5% MeOH, and 0.1% AcOH in 95% MeOH; the HPLC column was an Onyx Monolithic C18 CHO-7645 HPLC column obtained from Phenomenex; Shimadzu LC-10ADVP equipped Biomek FX Liquid handling system and CTC Analytics PAL well auto-sampler; Mass spectrometer: Applied Biosystems API 3000 using Analyst 1.4.1 software). Inhibition was determined by the ratio of the amount of 1′-hydroxy midazolam metabolite formed in the presence of test compound to the amount of metabolite found in the absence of test compound Inhibition was measured relative to the rate of formation of 1′-hydroxy midazolam incubated at 2.5 μM without test compound.

[1] = In vivo pharmacokinetics, IV and oral gavage; set-up: species or system male Sprague-Dawley rats; settings: rat; for FPO: Table 5; for Fpo (%): Table 6; for clearance / AUC(0-t) / Cmax / Vd: male, Sprague-Dawley, plasma; for Vd: read-out: Vss
Protocol: In vivo pharmacokinetic parameters were determined by measuring systemic plasma exposure in male Sprague-Dawley rats (Charles River Laboratories or Taconic, Oxnard, Calif.) by intravenous administration (N=3 fed rats: 2 mg/kg tail vein injection in DMSO) and oral gavage (N=3 fasted rats: 5 mg/kg in 1% Tween 80-2% HPMC-97% deionized water-pH 2.0 vehicle) (Comparative Example 18′ was only dosed IV and at 0.5 mg/kg). DMSO was obtained from Mallinckrodt Inc.; Tween 80 was obtained from Croda; HPMC is Methocel E50 Premium LV, obtained from Dow Excipients. Following oral administration, blood was drawn (250 μL) at 0.25, 0.5, 1, 2, 4, 6, 8, 12, and 16 hours. Following iv administration, blood was drawn (250 μL) at 0.083, 0.25, 0.5, 1, 2, 4, 6, 8, and 16 hours. Blood samples were drawn using a Culex® In Vivo Sampling System (BASi) and collected in BD Microtainer® tubes containing Lithium Heparin (BD). Plasma was obtained by centrifugation of blood at 14000 g and 2-8° C. for five minutes using an Eppendorf 5417R Centrifuge System. Plasma samples were mixed with 2× volume of acetonitrile (Sigma-Aldrich, St. Louis, Mo.). The mixture was stirred briefly using a vortex mixer and then centrifuged at 2867 g for 5 minutes in a Beckman Coulter Allegra 25R equipped with a Type S5700 rotor. The supernatant was removed and diluted 2× with mobile phase A (5/94.9/0.1 v/v/v MeOH/water/AcOH). Plasma concentrations were determined using liquid chromatography/tandem mass spectrometry, with electrospray ionization (ESI) and multiple reaction monitoring in the positive ion mode (Sciex API 3000 mass spectrometer connected to a Shimadzu LC-20AD pump and a LEAP PAL autosampler. Typical conditions used for HPLC were: mobile phase A=5/94.9/0.1 v/v/v MeOH/water/AcOH and mobile phase B=95/4.9/0.1 v/v/v MeOH/water/AcOH; HPLC column was a Varian MonoChrom C18.3μ for 2×30 mm and 51.1 for 2×50 mm) Instrument response was calibrated by a standard curve over 0.1-2000 ng/mL concentration range, and the lower limit of quantitation was 0.1-2.5 ng/mL. Peak areas were integrated on a Windows 2000 computer using the Sciex program Analyst® (Version 1.4.1). Following peak area integration, the data were exported to the software package (Watson® Non-GLP PROD (Version 7.0.0.01, Thermo Electron Corp., Waltham, Mass.)), where concentrations were determined by a weighted linear regression of peak area versus the nominal concentrations of the calibration standards. Calculations were performed on unrounded numbers. The Watson® Non-GLP PROD software was used to determine precision and accuracy for the calibration standards. Noncompartmental analysis of plasma concentration data was used to generate PK parameters such as clearance (CL, L/h/kg), volume of distribution (Vss, L/kg), area under the curve (AUC, ng·h/mL) and secondary parameters such as half-life (t1/2, h) and oral bioavailability (% F, %). This was done using WinNonlin Enterprise software (Version 5.1.1, from Pharsight Corp., Mountain View, Calif.). References for pharmacokinetic analysis include: Gabrielsson and Weiner (1997) Pharmacokinetic and Pharmacodynamic Data Analysis Concepts and Applications, 2nd ed., Swedish Pharmaceutical Press, Stockholm; Gibaldi and Perrier (1982) Pharmacokinetics, 2nd ed., Marcel Dekker, New York. Rowland and Tozer (1995) Clinical Pharmacokinetics: Concepts and Applications, 3rd ed., Lippincott Williams & Wilkins, Philadelphia.

[2] = IV 2 mg/kg, read-out: IV AUClast
[3] = PO 5 mg/kg, read-out: Oral AUClast
[4] = PO 5 mg/kg, read-out: Oral Cmax

Row | SMILES | inhibition at 10 min, 3 μM (CYP2D6) [%] | inhibition at 10 min, 3 μM (CYP3A4) [%] | FPO ([1]; PO 5 mg/kg, IV 2 mg/kg) [%] | Fpo (%) ([1]; PO 5 mg/kg, IV 2 mg/kg) | clearance ([1]; IV 2 mg/kg) [mL/min/kg] | AUC(0-t) [1, 2] [ng·h/mL] | Cmax ([1]; IV 2 mg/kg, read-out: IV Cmax) [ng/mL] | Vd ([1]; IV 2 mg/kg) [L/kg] | AUC(0-t) [1, 3] [ng·h/mL] | Cmax [1, 4] [ng/mL]
1 | N[C@H](CNc1ncc(-c2ccc3cnccc3c2)s1)Cc1ccc(C(F)(F)F)nc1 [2′, reference compound] | 94 | 100 | 5 | 5 | 37.4 | 870 | 1260 | 2.32 | 117 | 29
2 | N[C@H](CNc1ncc(-c2ccc3cnccc3c2)s1)Cc1ccc(C(F)(F)F)cc1 [4′, reference compound] | 78 | 87 | 27 | 20 | 50.9 | 651 | 422 | 6.17 | 432 | 86
3 | CC(F)(F)c1ccc(C[C@H](N)CNc2ncc(-c3ccc4cnccc4c3)s2)cn1 [7′, reference compound] | 79 | 86 | 4 | 3 | 97.9 | 336 | 490 | 4.55 | 30 | 8
4 | C[C@@H](c1ccc(C(F)(F)F)cc1)[C@H](N)CNc1ncc(-c2ccc3cnccc3c2)s1 [10′, reference compound] | 86 | 94 | 12 | 25 | 19.1 | 1680 | 730 | 9.46 | 487 | 73
5 | COCc1nc(NC[C@@H](N)Cc2ccc(C(F)(F)F)cc2)sc1-c1ccc2cnccc2c1 [24′, reference compound] | 94 | 100 | 14 | 19 | 90.1 | 369 | 465 | 10.2 | 129 | 51
6 | N[C@H](CNc1ncc(-c2ccc3cnccc3c2)s1)[C@@H](CO)c1ccc(C(F)(F)F)cc1 [33′, reference compound] | 88 | 91 | 12 | 10 | 47.5 | 691 | 797 | 4.18 | 199 | 23
7 | N[C@H](CCc1ncc(-c2ccc3cnccc3c2)s1)[C@@H](O)c1ccc(C(F)(F)F)cc1 [36′, reference compound] | 86 | 72 | 20 | 19 | 150 | 221 | 347 | 13.2 | 113 | 27
8 | CC(F)(F)c1ccc([C@H](O)[C@H](N)CNc2ncc(-c3ccc4cnccc4c3)s2)cc1 [38′, reference compound] | 88 | 86 | 4 | 4 | 108 | 299 | 412 | 6.67 | 30 | 13
9 | N[C@H](CNc1ncc(-c2ccc3cnccc3c2)s1)Cc1ccc(Cl)c(F)c1 [44′, reference compound] | 75 | 94 | 51 | 45 | 41.5 | 787 | 816 | 0.766 | 1000 | 138
